Molecules are shown by their SMILES. Structures can show the parent of a compound that is named as a salt. Where two headings read alike, the source gives them in different places. Peptide text beside a SMILES is read from it. * marks the point of attachment. Cbz = O=C(OCc1ccccc1)*; CH2F = FC*

The test has as its system PRKACA-PRKAR2A interaction (SmBiT-PRKACA / LgBiT-PRKAR2A), protein kinase A. On the set-up: NanoLuc complementation counter-screen in cell extract, PRKACA with PRKAR2A, loss of luminescence, detects NanoLuc interference. The conditions noted are these: counter-screen for NanoLuc interference, 0.5 h, 20 µM, inhibitor. On the technique in general: The purpose of a counterscreen is to sort out artefacts and off-target activity.

On to `COc1cc2c(Oc3ccc4[nH]c(C)cc4c3F)ncnc2cc1OCCCN1CCCC1` [UM0141418:01, Cediranib (AZD217)], for which the “Inh (PKA)” value is 13.87%.
As to `Cn1cncc1[C@@](N)(c1ccc(Cl)cc1)c1ccc2c(c1)c(-c1cccc(Cl)c1)cc(=O)n2C` [UM0135485:03, Tipifarnib (Zarnestra)], the “Inh (PKA)” value is reported as 47.09%.
As to `COC(=O)C[C@H](NC(=O)[C@H](C)NC(=O)[C@@H](NC(=O)[C@H](CC(=O)OC)NC(=O)[C@@H](NC(=O)OCc1ccccc1)C(C)C)C(C)C)C(=O)CF` [UM0141429:01, Z-VDVAD-FMK] (Cbz-VD(OMe)VAD(OMe)-CH2F), the “Inh (PKA)” value is reported as -0.4508%.
On the same count and under the same terms, next, `CC(=O)N1CCN(c2ccc(OC[C@@H]3CO[C@@](Cn4ccnc4)(c4ccc(Cl)cc4Cl)O3)cc2)CC1` (racemic) [UM0118636:05, Ketoconazole]: 5.554%.
The same measure, in the same setting: next, `CC[C@H]1OC(=O)[C@H](C)[C@@H](O[C@H]2C[C@@](C)(OC)[C@@H](O)[C@H](C)O2)[C@H](C)[C@@H](O[C@@H]2O[C@H](C)C[C@H](N(C)C)[C@H]2O)[C@](C)(O)C[C@@H](C)CN(C)[C@H](C)[C@@H](O)[C@]1(C)O` [UM0121404:03, Azithromycin]: 0.6112%; `CNCc1cc(-c2ccccc2F)n(S(=O)(=O)c2cccnc2)c1` [UM0141455:01, TAK-438]: 1.837%; `CCN(c1cc(-c2ccc(CN3CCOCC3)cc2)cc(C(=O)NCc2c(C)cc(C)[nH]c2=O)c1C)C1CCOCC1` [UM0129937:03, EPZ-6438]: 4.351%.
Same read-out and setting: next, `Cn1c(=O)c(F)c(Nc2ccc(I)cc2F)c2c(=O)n(C[C@@H](O)CO)cnc21` [UM0142329:01, TAK-733]: 15.12%; `N#Cc1ccnc(N2C(=O)CC[C@H]2C(=O)N(c2cncc(F)c2)[C@H](C(=O)NC2CC(F)(F)C2)c2ccccc2Cl)c1` [UM0139433:02, AG-120]: 2.094%; `COC(=O)Nc1nc2cc(C(=O)c3ccccc3)ccc2[nH]1` [UM0118348:03, Mebendazole]: 8.731%.
For `O=C(CCCCCN1C(=O)c2cccc3cccc(c23)C1=O)NO` [UM0128546:02, Scriptaid], the “Inh (PKA)” value is recorded as 3.14%.
In the case of `Cc1cnc(NC(=O)Nc2cc(Br)c(C)cc2OC[C@@H]2CNCCO2)cn1` [UM0142106:01, LY2603618], the “Inh (PKA)” value is listed as 6.637%.
As for `Cn1c(=O)cc(N2CCC[C@@H](N)C2)n(Cc2cc(F)ccc2C#N)c1=O` [UM0141640:01, Trelagliptin], the “Inh (PKA)” value is on record as -0.04176%.
The same measure, in the same setting: next, `C[C@@H](O[C@H]1OCCN(Cc2n[nH]c(=O)[nH]2)[C@H]1c1ccc(F)cc1)c1cc(C(F)(F)F)cc(C(F)(F)F)c1` [UM0141409:01, Aprepitant]: 12.87%; `CC(NC(=O)[C@H](Cc1ccccc1)NC(=O)OCc1ccccc1)C(=O)CF` (stereo partly shown) [UM0141928:01, Z-FA-FMK]: 4.07%.
Same read-out and setting: next, `COc1ccc(C(=O)N2CCCC2=O)cc1` [UM0119560:03, Aniracetam]: 4.422%.
For `CC1=C(CSC(=S)N2CCCCC2)C(=O)c2ccccc2C1=O` [UM0142824:01, PKM2 inhibitor(compound 3k)], the “Inh (PKA)” value was 18.26%.
As to `CN[C@H]1C[C@@H](N)[C@H](O)[C@@H](O[C@@H]2O[C@H](CO)[C@H](O)[C@@H]3OC4(O[C@H]23)O[C@H]([C@@H](N)CO)[C@H](O)[C@H](O)[C@H]4O)[C@@H]1O` (stereo partly shown) [UM0141464:01, Hygromycin B], the “Inh (PKA)” value came to 0.3498%.
Consider `c1cncc(CN2CCC(n3ncc4c(N5CCOCC5)nc(-c5ccc6[nH]ccc6c5)nc43)CC2)c1` [UM0142335:01, WAY-600], for which the “Inh (PKA)” value was determined as 7.744%.
For the compound `C[C@@H]1COCCN1c1cc(=O)n2c(n1)N(Cc1cncc(Cl)c1)[C@H](C(F)(F)F)CC2` [UM0142144:01, SAR405], the “Inh (PKA)” value is 7.192%.
As for `C=CCc1cccc(/C=N/NC(=O)CN2CCN(Cc3ccccc3)CC2)c1O` [UM0141933:01, PAC-1], the “Inh (PKA)” value was found to be 9.934%.
In the case of `C=CC(=O)Nc1ccc(CN2C(=O)N(c3cc(OC)cc(OC)c3)Cc3cnc(Nc4ccc(N5CCN(C)CC5)cc4)nc32)cc1` [UM0142120:01, FIIN-2], the “Inh (PKA)” value is on record as 9.452%.
Take `CNC(=O)c1cc(Oc2ccc(NC(=O)Nc3ccc(Cl)c(C(F)(F)F)c3)cc2)ccn1` [UM0127950:06, Sorafenib]: the “Inh (PKA)” value (Inh (PKA)) is given as 5.105%.
For the compound `COc1cc(N2CCC(N3CCN(C)CC3)CC2)ccc1Nc1ncnc(Nc2ccccc2S(=O)(=O)C(C)C)n1` [UM0141520:01, ASP3026], the “Inh (PKA)” value amounted to 2.084%.
Turning to `Nc1nc(N)c2nc(-c3ccccc3)c(N)nc2n1` [UM0118431:03, Triamterene], the “Inh (PKA)” value was 1.702%.
Turning to `CNCc1ccc(-c2[nH]c3cc(F)cc4c3c2CCNC4=O)cc1` [UM0135471:02, Rucaparib (AG-014699,PF-01367338)], the “Inh (PKA)” value (Inh (PKA)) worked out at 3.125%.
For `COc1c(C)c2c(c(O)c1C/C=C(\C)CCC(=O)OCCN1CCOCC1)C(=O)OC2` [UM0141793:01, Mycophenolate Mofetil], the “Inh (PKA)” value was 3.705%.
The same measure, in the same setting: next, `O=S(=O)(CC1CS1)c1ccc(Oc2ccccc2)cc1` (stereo not shown) [UM0142583:01, SB-3CT]: 17.13%; `CO[C@@H]1[C@H](OC(=O)/C=C/C=C/C=C/C=C/C(=O)O)CC[C@]2(CO2)[C@H]1[C@@]1(C)O[C@@H]1CC=C(C)C` [UM0141832:01, Fumagillin]: 0.06739%; `COc1ccc([C@@H]2CC(=O)c3c(O)cc(O)cc3O2)cc1O` [UM0142860:01, Hesperitin]: 3.061%.
The same measure, in the same setting: next, `NC[C@H]1O[C@H](O[C@H]2[C@H](O)[C@@H](O[C@H]3O[C@H](CO)[C@@H](O)[C@H](N)[C@H]3O)[C@H](N)C[C@@H]2N)[C@H](O)[C@@H](O)[C@@H]1O` [UM0141465:01, Kanamycin Sulfate]: 1.064%.
On the same count and under the same terms, next, `C[C@@H]1CCNC(=O)c2cc3ccc(C(=O)Nc4nc5ccccc5n4CCCN(C)C)cc3n21` [UM0142196:01, BIX 02565]: 22.65%.
Regarding `CCc1c(C(=O)NNC(=O)C(O)c2cc(F)cc(F)c2)ccc(O)c1C` (stereo not shown) [UM0141549:01, EMD638683], the “Inh (PKA)” value came out at 19.67%.
Still for that read-out and setting: next, `CC1COc2c(N3CCN(C)CC3)c(F)cc3c(=O)c(C(=O)O)cn1c23` (stereo not shown) [UM0133058:02, Ofloxacin]: -0.3552%; `COc1cc2/c(=N/c3ccc(Br)cc3F)nc[nH]c2cc1OCC1CCN(C)CC1` [UM0127962:02, Vandetanib (ZD6474)]: 5.275%.
In the case of `COc1cc2nccc(Oc3ccc(NC(=O)C4(C(=O)Nc5ccc(F)cc5)CC4)cc3)c2cc1OC` [UM0142237:01, Cabozantinib malate (XL184)], for the setting “Inh (PKA)”, the “Inh (PKA)” value turned out to be 10.79%.
As for `CC(=O)Nc1ccc(NC(=S)NC(=O)c2ccc(C(C)(C)C)cc2)cc1` [UM0075879:02, Tenovin-1], the “Inh (PKA)” value was 12.95%.
For the compound `COc1cc(N2CCC(N3CCN(C)CC3)CC2)ccc1Nc1ncc(Cl)c(Nc2ccccc2S(=O)(=O)C(C)C)n1` [UM0141971:01, TAE684 (NVP-TAE684)], the “Inh (PKA)” value is on record as 23%.
Same read-out and setting: next, `COc1ccc([C@]2(C#N)CC[C@@H](C(=O)O)CC2)cc1OC1CCCC1` [UM0141787:01, Cilomilast]: 0.1397%; `NCCc1ccc(O)c(O)c1` [UM0119875:03, Dopamine HCl]: 1.983%.

These data come from article PMC9995496, “A screen for MeCP2-TBL1 interaction inhibitors using a luminescence-based assay” (Scientific Reports, 2023).
